Laboratory results reported in patent publication US20070021419A1, “2-Aminophenyl-4-phenylpyrimidines as kinase inhibitors” (Cyclacel Limited, priority 2003, published 2007).

Columns and labels:
CDK1/cyclin B = CDK1/cyclin B (Homo sapiens, UniProt P06493); assay: Kinase assay, radioactive phosphate incorporation, CDK1/cyclin B; type: biochemical; conditions: 100 μM ATP, 30° C.; read-out: Kinase inhibition IC50 CDK1/cyclin B
Experimental: (§1) The compounds from the examples above were investigated for their ability to inhibit the enzymatic activity of various protein kinases. This was achieved by measurement of incorporation of radioactive phosphate from ATP into appropriate polypeptide substrates. Recombinant protein kinases and kinase complexes were produced or obtained commercially. Assays were performed using 96-well plates and appropriate assay buffers (typically 25 mM β-glycerophosphate, 20 mM MOPS, 5 MM EGTA, 1 mM DTT, 1 mM Na3VO3, pH 7.4), into which were added 2-4 μg of active enzyme with appropriate substrates. The reactions were initiated by addition of Mg/ATP mix (15 mM MgCl2+100 μM ATP with 30-50 kBq per well of [γ-^32P]-ATP) and mixtures incubated as required at 30° C. Reactions were stopped on ice, followed by filtration through p81 filterplates or GF/C filterplates (Whatman Polyfiltronics, Kent, UK). After washing 3 times with 75 mM aq orthophosphoric acid, plates were dried, scintillant added and incorporated radioactivity measured in a scintillation counter (TopCount, Packard Instruments, Pangbourne, Berks, UK). Compounds for kinase assay were made up as 10 mM stocks in DMSO and diluted into 10% DMSO in assay buffer.

CDK2/cyclin A = CDK2/cyclin A (Homo sapiens, UniProt P24941); assay: Kinase assay, radioactive phosphate incorporation, CDK2/cyclin A; type: biochemical; conditions: 100 μM ATP, 30° C.; read-out: Kinase inhibition IC50 CDK2/cyclin A
Experimental: as §1

CDK2/cyclin E = CDK2/cyclin E (Homo sapiens, UniProt P24941); assay: Kinase assay, radioactive phosphate incorporation, CDK2/cyclin E; type: biochemical; conditions: 100 μM ATP, 30° C.; read-out: Kinase inhibition IC50 CDK2/cyclin E
Experimental: as §1

CDK4/cyclin D1 = CDK4/cyclin D1 (Homo sapiens, UniProt P11802); assay: Kinase assay, radioactive phosphate incorporation, CDK4/cyclin D1; type: biochemical; conditions: 100 μM ATP, 30° C.; read-out: Kinase inhibition IC50 CDK4/cyclin D1
CDK4/cyclin D1, sequence (P11802 whole entry, species assumed): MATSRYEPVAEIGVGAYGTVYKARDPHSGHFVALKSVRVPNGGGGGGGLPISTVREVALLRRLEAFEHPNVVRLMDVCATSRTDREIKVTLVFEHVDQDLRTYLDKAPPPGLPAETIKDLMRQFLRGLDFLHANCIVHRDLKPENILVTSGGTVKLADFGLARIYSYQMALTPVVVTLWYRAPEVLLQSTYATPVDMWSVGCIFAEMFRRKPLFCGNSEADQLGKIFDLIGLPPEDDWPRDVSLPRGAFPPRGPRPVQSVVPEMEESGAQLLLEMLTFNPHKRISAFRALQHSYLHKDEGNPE
CDK4/cyclin D1, sequence (P24385 whole entry partner, species assumed): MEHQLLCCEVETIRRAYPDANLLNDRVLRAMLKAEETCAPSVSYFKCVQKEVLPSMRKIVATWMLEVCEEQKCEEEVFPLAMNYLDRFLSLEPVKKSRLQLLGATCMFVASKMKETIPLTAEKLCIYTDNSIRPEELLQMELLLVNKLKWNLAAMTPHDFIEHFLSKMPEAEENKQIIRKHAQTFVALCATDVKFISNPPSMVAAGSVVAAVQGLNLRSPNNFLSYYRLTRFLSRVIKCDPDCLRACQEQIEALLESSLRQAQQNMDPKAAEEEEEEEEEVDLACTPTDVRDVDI
Experimental: as §1

CDK7/cyclin H = CDK7/cyclin H (Homo sapiens, UniProt P50613); assay: Kinase assay, radioactive phosphate incorporation, CDK7/cyclin H; type: biochemical; conditions: 100 μM ATP, 30° C.; read-out: Kinase inhibition IC50 CDK7/cyclin H
CDK7/cyclin H, sequence (P50613 whole entry, species assumed): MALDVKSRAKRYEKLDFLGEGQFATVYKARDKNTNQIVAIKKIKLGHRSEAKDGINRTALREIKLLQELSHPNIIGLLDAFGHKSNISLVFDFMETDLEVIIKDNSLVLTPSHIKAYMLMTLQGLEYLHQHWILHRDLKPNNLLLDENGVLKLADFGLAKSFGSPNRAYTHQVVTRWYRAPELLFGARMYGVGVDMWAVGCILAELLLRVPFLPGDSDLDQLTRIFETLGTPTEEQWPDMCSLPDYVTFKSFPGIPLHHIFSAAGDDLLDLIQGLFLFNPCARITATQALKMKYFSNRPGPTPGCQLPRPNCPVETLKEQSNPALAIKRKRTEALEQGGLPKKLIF
CDK7/cyclin H, sequence (P51946 whole entry partner, species assumed): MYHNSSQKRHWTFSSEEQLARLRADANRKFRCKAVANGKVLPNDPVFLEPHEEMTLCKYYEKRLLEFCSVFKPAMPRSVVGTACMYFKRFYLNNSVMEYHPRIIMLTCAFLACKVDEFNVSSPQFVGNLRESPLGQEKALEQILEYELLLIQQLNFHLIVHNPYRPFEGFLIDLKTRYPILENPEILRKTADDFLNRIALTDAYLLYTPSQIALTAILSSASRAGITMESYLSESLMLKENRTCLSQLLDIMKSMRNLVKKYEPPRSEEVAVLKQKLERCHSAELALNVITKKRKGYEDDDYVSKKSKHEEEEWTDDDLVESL
Experimental: as §1

CDK9/cyclin T1 = CDK9/cyclin T1 (Homo sapiens, UniProt P50750); assay: Kinase assay, radioactive phosphate incorporation, CDK9/cyclin T1; type: biochemical; conditions: 100 μM ATP, 30° C.; read-out: Kinase inhibition IC50 CDK9/cyclin T1
CDK9/cyclin T1, sequence (P50750 whole entry, species assumed): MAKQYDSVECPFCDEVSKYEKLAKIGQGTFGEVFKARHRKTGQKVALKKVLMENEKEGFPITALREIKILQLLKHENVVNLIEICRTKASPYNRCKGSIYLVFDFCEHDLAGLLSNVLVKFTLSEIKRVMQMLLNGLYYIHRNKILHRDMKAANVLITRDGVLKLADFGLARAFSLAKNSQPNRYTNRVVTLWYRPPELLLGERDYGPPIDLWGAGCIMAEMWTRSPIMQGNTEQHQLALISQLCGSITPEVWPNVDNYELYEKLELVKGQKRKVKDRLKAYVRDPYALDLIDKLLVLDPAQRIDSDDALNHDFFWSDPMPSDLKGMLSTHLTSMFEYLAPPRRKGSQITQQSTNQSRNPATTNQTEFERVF
CDK9/cyclin T1, sequence (O60563 whole entry partner, species assumed): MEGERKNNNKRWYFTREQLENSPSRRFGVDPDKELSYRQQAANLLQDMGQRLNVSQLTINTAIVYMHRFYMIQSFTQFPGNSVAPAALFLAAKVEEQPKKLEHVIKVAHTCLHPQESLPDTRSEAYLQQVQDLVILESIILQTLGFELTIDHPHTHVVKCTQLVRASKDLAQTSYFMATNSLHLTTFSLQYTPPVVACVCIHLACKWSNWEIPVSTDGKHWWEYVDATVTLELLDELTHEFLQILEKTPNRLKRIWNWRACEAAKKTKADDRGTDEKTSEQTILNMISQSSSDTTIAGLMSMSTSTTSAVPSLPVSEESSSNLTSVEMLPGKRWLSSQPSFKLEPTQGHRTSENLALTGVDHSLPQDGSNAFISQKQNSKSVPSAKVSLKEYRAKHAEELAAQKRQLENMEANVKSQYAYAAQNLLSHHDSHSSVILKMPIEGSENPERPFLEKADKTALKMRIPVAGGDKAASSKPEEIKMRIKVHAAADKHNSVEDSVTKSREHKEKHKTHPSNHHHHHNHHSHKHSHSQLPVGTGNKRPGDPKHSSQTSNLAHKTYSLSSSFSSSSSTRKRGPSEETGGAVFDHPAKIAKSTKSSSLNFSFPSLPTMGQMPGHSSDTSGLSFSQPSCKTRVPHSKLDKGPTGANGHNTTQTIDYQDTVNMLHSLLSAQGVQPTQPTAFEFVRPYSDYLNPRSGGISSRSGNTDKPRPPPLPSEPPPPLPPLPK
Experimental: as §1

GSK3β = GSK3β (Homo sapiens, UniProt P49841); assay: Kinase assay, radioactive phosphate incorporation, GSK3β; type: biochemical; conditions: 100 μM ATP, 30° C.; read-out: Kinase inhibition IC50 GSK3β
GSK3β, sequence (P49841 whole entry, species assumed): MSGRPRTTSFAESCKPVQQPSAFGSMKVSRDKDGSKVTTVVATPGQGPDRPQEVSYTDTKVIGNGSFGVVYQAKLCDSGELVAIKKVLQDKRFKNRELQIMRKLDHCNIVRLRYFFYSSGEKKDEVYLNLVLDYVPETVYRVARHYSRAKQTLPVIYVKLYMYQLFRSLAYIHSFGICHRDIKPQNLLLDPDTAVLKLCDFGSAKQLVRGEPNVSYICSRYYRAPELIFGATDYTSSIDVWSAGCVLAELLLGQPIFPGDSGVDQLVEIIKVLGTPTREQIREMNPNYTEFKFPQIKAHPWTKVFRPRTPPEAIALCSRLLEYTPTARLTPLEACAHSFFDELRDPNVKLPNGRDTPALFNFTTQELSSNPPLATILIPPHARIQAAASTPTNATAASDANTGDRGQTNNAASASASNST
Experimental: as §1

A549 = assay: 72-h MTT cytotoxicity assay, A549; type: cell-based; conditions: Homo sapiens, read-out: 72-h MTT IC50 A549, A549 cell line
Experimental: (§2) The compounds from the examples above were subjected to a standard cellular proliferation assay using human tumour cell lines obtained from the ATCC (American Type Culture Collection, 10801 University Boulevard, Manessas, Va. 20110-2209, USA). Standard 72-h MTT (thiazolyl blue; 3-[4,5-dimethylthiazol-2-yl]-2,5-diphenyltetrazolium bromide) assays were performed. In short: cells were seeded into 96-well plates according to doubling time and incubated overnight at 37° C. Test compounds were made up in DMSO and a 1/3 dilution series prepared in 100 μL cell media, added to cells (in triplicates) and incubated for 72 ho at 37° C. MTT was made up as a stock of 5 mg/mL in cell media and filter-sterilised. Media was removed from cells followed by a wash with 200 μL PBS. MTT solution was then added at 20 μL per well and incubated in the dark at 37° C. for 4 h. MTT solution was removed and cells again washed with 200 μL PBS. MTT dye was solubilised with 200 μL per well of DMSO with agitation.

HT29 = assay: 72-h MTT cytotoxicity assay, HT29; type: cell-based; conditions: Homo sapiens, HT-29, read-out: 72-h MTT IC50 HT29, HT29 cell line
Experimental: as §2

Saos-2 = assay: 72-h MTT cytotoxicity assay, Saos-2; type: cell-based; conditions: Homo sapiens, read-out: 72-h MTT IC50 Saos-2, Saos-2 cell line
Experimental: as §2

[1] = system: transformed human cell lines (A549, HT29, Saos-2); assay: 72-h MTT cytotoxicity assay, average of cell lines; type: cell-based; conditions: read-out: 72-h MTT IC50 Average, average of A549, HT29, Saos-2
Experimental: as §2

CDK1/cyclin B, sequence (P06493 whole entry, species assumed): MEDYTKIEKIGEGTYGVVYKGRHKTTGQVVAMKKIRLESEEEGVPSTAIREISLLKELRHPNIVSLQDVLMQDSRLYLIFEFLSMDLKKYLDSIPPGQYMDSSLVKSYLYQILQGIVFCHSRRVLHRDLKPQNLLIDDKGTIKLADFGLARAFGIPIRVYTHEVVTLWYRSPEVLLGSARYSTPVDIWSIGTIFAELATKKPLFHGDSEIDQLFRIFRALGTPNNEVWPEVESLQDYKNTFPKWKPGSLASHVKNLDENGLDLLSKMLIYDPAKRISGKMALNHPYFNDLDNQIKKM
CDK1/cyclin B, sequence (P14635 whole entry partner, species assumed): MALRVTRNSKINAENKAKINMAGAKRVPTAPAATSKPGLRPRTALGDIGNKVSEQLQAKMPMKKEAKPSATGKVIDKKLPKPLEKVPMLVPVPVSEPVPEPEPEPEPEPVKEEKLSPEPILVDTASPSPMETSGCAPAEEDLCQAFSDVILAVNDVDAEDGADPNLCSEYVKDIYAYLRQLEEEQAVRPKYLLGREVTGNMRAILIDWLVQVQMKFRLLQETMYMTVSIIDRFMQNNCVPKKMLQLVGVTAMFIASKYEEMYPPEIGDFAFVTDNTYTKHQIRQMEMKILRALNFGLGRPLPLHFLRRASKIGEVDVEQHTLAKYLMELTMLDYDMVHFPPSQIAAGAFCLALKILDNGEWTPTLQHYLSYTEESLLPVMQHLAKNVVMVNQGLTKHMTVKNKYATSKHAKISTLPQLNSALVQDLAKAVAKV

Structure (SMILES)	IC50 (CDK1/cyclin B)	IC50 (CDK2/cyclin A)	IC50 (CDK2/cyclin E)	IC50 (CDK4/cyclin D1)	IC50 (CDK7/cyclin H)	IC50 (CDK9/cyclin T1)	IC50 (GSK3β)	IC50 (A549)	IC50 (HT29)	IC50 (Saos-2)	IC50 [1]
Oc1cccc(Nc2nccc(-c3cccc(Cl)c3)n2)c1 [Compound 18, 3-[4-(3-Chloro-phenyl)-pyrimidin-2-ylamino]-phenol]	5500 nM	3100 nM	1100 nM	–	–	–	–	–	–	–	–
CCNc1cccc(-c2ccnc(Nc3ccc([N+](=O)[O-])cc3)n2)c1 [Compound 26, [4-(3-Ethylamino-phenyl)-pyrimidin-2-yl]-(4-nitro-phenyl)-amine]	1300 nM	130 nM	33 nM	–	20000 nM	59 nM	40 nM	1.7 µM	1.2 µM	1.1 µM	1.3 ± 0.3 µM
CCN(C(C)=O)c1cccc(-c2ccnc(Nc3ccc(OC)cc3)n2)c1 [Compound 23, N-Ethyl-N-{3-[2-(4-methoxy-phenylamino)-pyrimidin-4-yl]-phenyl}-acetamide]	3600 nM	1200 nM	1100 nM	7600 nM	4300 nM	400 nM	120 nM	12.9 µM	3.4 µM	23 µM	13.1 ± 9.8 µM
Oc1cccc(Nc2nccc(-c3cccc(CNCc4ccccc4)c3)n2)c1 [Compound 28, 3-{4-[3-(Benzylamino-methyl)-phenyl]-pyrimidin-2-ylamino}-phenol]	2100 nM	1000 nM	860 nM	2600 nM	2600 nM	35 nM	120 nM	8 µM	16 µM	7.1 µM	10.4 ± 4.9 µM
O=[N+]([O-])c1cccc(Nc2nccc(-c3cccc(Cn4ccnc4)c3)n2)c1 [Compound 29, [4-(3-Imidazol-1-ylmethyl-phenyl)-pyrimidin-2-yl]-(3-nitro-phenyl)-amine]	2200 nM	5100 nM	140 nM	62000 nM	71 nM	44 nM	50 nM	3.6 µM	1.8 µM	4.5 µM	3.3 ± 1.4 µM
Oc1ccc(Nc2nccc(-c3cccc(Cl)c3)n2)cc1 [Compound 17, 4-[4-(3-Chloro-phenyl)-pyrimidin-2-ylamino]-phenol]	5300 nM	2100 nM	390 nM	–	–	–	–	–	–	–	–
CCNc1cccc(-c2ccnc(Nc3ccc(OC)cc3)n2)c1 [Compound 25, [4-(3-Ethylamino-phenyl)-pyrimidin-2-yl]-(4-methoxy-phenyl)-amine]	170 nM	30 nM	39 nM	170 nM	940 nM	5 nM	140 nM	–	–	–	–
COc1cccc(Nc2nccc(-c3cccc(Cn4cncn4)c3)n2)c1 [Compound 35, (3-Methoxy-phenyl)-[4-(3-[1,2,4]triazol-1-ylmethyl-phenyl)-pyrimidin-2-yl]-amine]	–	3200 nM	920 nM	570 nM	580 nM	69 nM	100 nM	15 µM	7.7 µM	23.2 µM	15.3 ± 7.7 µM
CN(C)c1ccc(Nc2nccc(-c3ccc(Cl)c(Cl)c3)n2)cc1 [Compound 20, N-[4-(3,4-Dichloro-phenyl)-pyrimidin-2-yl]-N′,N′-dimethyl-benzene-1,4-diamine]	3900 nM	–	6100 nM	20000 nM	–	–	1100 nM	35.5 µM	35.8 µM	24.7 µM	32 ± 6.3 µM
Oc1ccc(Nc2nccc(-c3ccc(Cl)c(Cl)c3)n2)cc1 [Compound 21, 4-[4-(3,4-Dichloro-phenyl)-pyrimidin-2-ylamino]-phenol]	29000 nM	–	3500 nM	29000 nM	–	5400 nM	–	11.7 µM	15.1 µM	41.5 µM	22.8 ± 16.3 µM

Further lines, with some results ahead:

IC50 (CDK1/cyclin B)	IC50 (CDK2/cyclin A)	IC50 (CDK2/cyclin E)	IC50 (CDK4/cyclin D1)	IC50 (CDK7/cyclin H)	IC50 (CDK9/cyclin T1)	IC50 (GSK3β)	Structure (SMILES)	IC50 (A549)	IC50 (HT29)	IC50 (Saos-2)	IC50 [1]
2000 nM	820 nM	300 nM	4500 nM	130 nM	22 nM	320 nM	CN1CCN(Cc2cccc(-c3ccnc(Nc4cccc([N+](=O)[O-])c4)n3)c2)CC1 [Compound 54, {4-[3-(4-Methyl-piperazin-1-ylmethyl)-phenyl]-pyrimidin-2-yl}-(3-nitro-phenyl)-amine]	1.1 µM	0.77 µM	1.3 µM	1.1 ± 0.3 µM
150 nM	150 nM	< 1 nM	540 nM	50 nM	10 nM	20 nM	O=[N+]([O-])c1cccc(Nc2nccc(-c3cccc(CN4CCCCC4CO)c3)n2)c1 (stereo not drawn) [Compound 79, (1-{3-[2-(3-Nitro-phenylamino)-pyrimidin-4-yl]-benzyl}-piperidin-2-yl)-methanol]	0.33 µM	0.2 µM	0.62 µM	0.4 ± 0.2 µM
1100 nM	440 nM	60 nM	1700 nM	30 nM	< 1 nM	20 nM	Cc1ccc(Nc2nccc(-c3cccc(CN4CCCCC4CO)c3)n2)cc1[N+](=O)[O-] (stereo not drawn) [Compound 108, (1-{3-[2-(4-Methyl-3-nitro-phenylamino)-pyrimidin-4-yl]-benzyl}-piperidin-2-yl)-methanol]	–	–	–	–
120 nM	60 nM	1300 nM	3800 nM	500 nM	40 nM	70 nM	COc1ccc(Nc2nccc(-c3cccc(Cn4ccnc4)c3)n2)cn1 [Compound 59, [4-(3-Imidazol-1-ylmethyl-phenyl)-pyrimidin-2-yl]-(6-methoxy-pyridin-3-yl)-amine]	–	–	–	–
11000 nM	–	3200 nM	2000 nM	1100 nM	220 nM	87 nM	COc1ccc(Nc2nccc(-c3cccc(Cn4cncn4)c3)n2)cc1 [Compound 42, (4-Methoxy-phenyl)-[4-(3-[1,2,4]triazol-1-ylmethyl-phenyl)-pyrimidin-2-yl]-amine]	10.6 µM	6.7 µM	25.8 µM	14.4 ± 10.1 µM
270 nM	–	420 nM	–	880 nM	1600 nM	5 nM	CS(=O)(=O)NCc1cccc(-c2ccnc(Nc3cccc([N+](=O)[O-])c3)n2)c1 [Compound 40, N-{3-[2-(3-Nitro-phenylamino)-pyrimidin-4-yl]-benzyl}-methanesulfonamide]	1.6 µM	1.2 µM	4.3 µM	2.4 ± 1.7 µM
10 nM	30 nM	10 nM	200 nM	30 nM	3 nM	30 nM	CN(C)Cc1cccc(-c2ccnc(Nc3cccc([N+](=O)[O-])c3)n2)c1 [Compound 71, [4-(3-Dimethylaminomethyl-phenyl)-pyrimidin-2-yl]-(3-nitro-phenyl)-amine]	–	–	–	–
